Assay results as given in patent publication US20230049130A1, “DEUCRAVACITINIB CRYSTAL FORM, PREPARATION METHOD THEREFOR AND USE THEREOF” (CRYSTAL PHARMACEUTICAL (SUZHOU) CO., LTD., priority 2020, published 2023).

Legend:
Format in all cases: physicochemical
[1] = Kinetic solubility in SGF, FeSSIF and FaSSIF (HPLC)
Description: When solubility test is used to predict the in vivo performance of a drug, it is critical to simulate in vivo conditions as closely as possible. Simulated gastric fluid (SGF), Fed-state simulated intestinal fluid (FeSSIF) and Fasted-state simulated intestinal fluid (FaSSIF) can be used to simulate the conditions in vivo and predict the effects of eating, thus solubilities in these media are closer to those in vivo.
15-20 mg of Form CSIII of the present disclosure and 15-20 mg of Form A were suspended into 2.5 mL of SGF, 2.5 mL of FeSSIF, and 2.5 mL of FaSSIF to get suspensions. After equilibrated for 1 h and 4 h, concentrations of these solutions were measured by HPLC.

[2] = Bulk and tapped density; details: for Bulk density: about 500 mg powder in 5-mL cylinder; for Tapped density: tapped 1250 times
Description: About 500 mg of powder were added into a 5-mL measuring cylinder and bulk volume was recorded. Then the powder was tapped for 1250 times by ZS-2E tap density tester to make it in the tightest state and the tapped volume was recorded. The bulk density and tapped density were calculated.

[3] = Stability of Form CSIII on storage (XRPD, HPLC purity); details: for Crystalline form after storage: XRPD
Description: Approximately 5 mg of Form CSIII samples was stored under different conditions of 25° C./60%RH, 40° C./75%RH, and 60° C./75%RH. Crystalline form and chemical purity were checked by XRPD and HPLC, respectively.

[4] = Physical stability under pressure (tableting, XRPD); details: compressed under 5 kN, 10 kN and 20 kN
Excerpt: A certain amount of Form CSIII was compressed into tablets under 5 kN, 10 kN and 20 kN with suitable tableting die. Crystalline forms before and after tableting were checked by XRPD.

[5] = Physical stability upon grinding (XRPD); details: ground manually 5 minutes in a mortar
Description: Form CSIII sample was grounded manually for 5 minutes in a mortar. Crystalline forms before and after grinding were checked by XRPD.

[6] = Physical stability upon humidity change (DVS, XRPD); details: cycle of 0%-95%-0%RH at 25° C.
Description: Dynamic Vapor Sorption (DVS) is measured via an SMS (Surface Measurement Systems Ltd.) intrinsic DVS instrument. Its control software is DVS- Intrinsic control software, and its analysis software is DVS-Intrinsic Analysis software. Typical Parameters for DVS test are as follows: • Temperature: 25° C. • Gas and flow rate: N2, 200 mL/min • RH range: 0% RH to 95% RH
Dynamic vapor sorption (DVS) was applied to test the stability of Form CSIII. A certain amount of Form CSIII was tested in a cycle of 0%-95%-0%RH at 25° C.

[7] = applicant's characterisation of repeated prior-art form

[2H]C([2H])([2H])NC(=O)c1nnc(NC(=O)C2CC2)cc1Nc1cccc(-c2ncn(C)n2)c1OC [Form A, 6-(cyclopropanecarboxamido)-4-((2-methoxy-3-(1-methyl-1H-1,2,4-triazol-3-yl)phenyl)amino)-N-(methyl-d3) pyridazine-3-carboxamide, reference compound]
Concentration ([1]; FaSSIF, equilibrated 1 hour): 13.5 µg/mL
Concentration ([1]; FaSSIF, equilibrated 4 hours): 13.6 µg/mL
Concentration ([1]; FeSSIF, equilibrated 1 hour): 82.3 µg/mL
Concentration ([1]; FeSSIF, equilibrated 4 hours): 68.8 µg/mL
Concentration ([1]; SGF, equilibrated 1 hour): 1114.1 µg/mL
Concentration ([1]; SGF, equilibrated 4 hours): 617.2 µg/mL
Solubility (in words) [1, 7]: poor solubility
Bulk density [2]: 0.3899 g/mL
Density (in words) [2, 7]: low density
Tapped density [2]: 0.5199 g/mL

[2H]C([2H])([2H])NC(=O)c1nnc(NC(=O)C2CC2)cc1Nc1cccc(-c2ncn(C)n2)c1OC [Form CSIII, 6-(cyclopropanecarboxamido)-4-((2-methoxy-3-(1-methyl-1H-1,2,4-triazol-3-yl)phenyl)amino)-N-(methyl-d3) pyridazine-3-carboxamide]
Concentration ([1]; FaSSIF, equilibrated 1 hour): 49 µg/mL
Solubility relative to that of Form A ([1]; FaSSIF, equilibrated 1 hour): 3.6 times
Concentration ([1]; FaSSIF, equilibrated 4 hours): 55.7 µg/mL
Solubility relative to that of Form A ([1]; FaSSIF, equilibrated 4 hours): 4.1 times
Concentration ([1]; FeSSIF, equilibrated 1 hour): 193.6 µg/mL
Concentration ([1]; FeSSIF, equilibrated 4 hours): 179.3 µg/mL
Concentration ([1]; SGF, equilibrated 1 hour): 1582.4 µg/mL
Concentration ([1]; SGF, equilibrated 4 hours): 1296.8 µg/mL
Time stable on storage ([3]; 25° C./60% RH): at least 3 months
Crystalline form after storage ([3]; 25° C./60%RH (open), 3 months): Form CSIII
Crystalline form after storage ([3]; 25° C./60%RH (sealed), 3 months): Form CSIII
Time stable on storage ([3]; 40° C./75% RH): at least 3 months
Crystalline form after storage ([3]; 40° C./75%RH (open), 3 months): Form CSIII
Crystalline form after storage ([3]; 40° C./75%RH (sealed), 3 months): Form CSIII
Time stable on storage ([3]; 60° C./75% RH): at least one month
Change in chemical purity during storage ([3]; 60° C./75% RH, one month, open condition, HPLC): 0.07%
Crystalline form after storage ([3]; 60° C./75%RH (open), one month): Form CSIII
Crystalline form after storage ([3]; 60° C./75%RH (sealed), one month): Form CSIII
Crystalline state after tableting [4]: does not change
Crystalline state after grinding [5]: does not change
Crystalline state after DVS test [6]: does not change
Bulk density [2]: 0.4276 g/mL
Tapped density [2]: 0.5987 g/mL
